What was measured:
MOLT-4 = experiment: Growth inhibition of human MOLT4 cells after 5 days by MTT assay; assay type: cell-based; settings: MOLT-4, 120 h
[1] = test system: Human immunodeficiency virus 1; experiment: Growth inhibition of HIV1 3B infected human MOLT4 cells after 5 days by MTT assay; assay type: functional, organism-based; settings: Human immunodeficiency virus 1, 3B, MOLT-4, 120 h

Row | SMILES | IC50 (MOLT-4) [µM] | IC50 [1] [µM]
1 | CCCCCCCCCCCCOCCOCCOCCOCCOCCOCCOCCOCCOCCOCCOCCOCCOCCOCCOCCOCCOCCOCCOCCOCCOCCOCCOCCO | 190 | 47
2 | CCCCCCCCCCCCOCCOCCOCCOCCOCCOCCOCCOCCOCCOCCOCCOCCOCCOCCOCCOCCOCCOCCOCCOCCOCCO | 121 | 34
3 | CCCCCCCCCCCCOCCOCCOCCOCCOCCOCCOCCOCCO | 59 | 29
4 | CCCCCCCCCCCCOCCOCCOCCOCCOCCOCCOCCOCCOCCOCCO | 41 | 26
5 | CCCCCCCCCCCCOCCOCCOCCOCCOCCOCCOCCOCCOCCOCCOCCOCCOCCOCCOCCOCCOCCOCCOCCOCCOCCOCCOCCOCCOCCO | 221 | 40
6 | CCCCCCCCCCCCCC(=O)OC[C@H](COP(=O)([O-])OCC[N+](C)(C)C)OC(=O)CCCCCCCCCCCCC [DIMYRISTOYLPHOSPHATIDYLCHOLINE] | 293 | 50
7 | CCCCCCCCCCCCOCCOCCOCCOCCO [LAURETH 4] | 118 | 37
